Earlier results in patent US20170071839A1, “Personal care and medicinal products incorporating organosulfur groups” (priority 2015, published 2017).
Like-named read-outs stand apart in the source and are kept apart here.

Experiments:
NFkB = details: macrophages
[1] = after garlic consumption
[2] = system: Salmonella typhimurium and E. coli
[3] = not given; remark: listed apart in the source
[4] = system: acetaminophen (Tylenol) poisoning
[5] = system: total glutathione level of cells
[6] = biological target: NFkB signal transduction proteins p50 and P65 (Homo sapiens, UniProt P19838+Q04206)
[7] = after fresh garlic (e.g. 25 g) or pure allicin (60 mg)
[8] = shelf stability

For `C=CCSSCC=C` [DADS, Diallyl Disulfide], the “Reaction in Blood Product (moles)” value is given as “AllylSH (0.8)”.
In the case of `C=CCSC[C@H](NC(C)=O)C(=O)O` [N-acetyl-S-allylcysteine], the “effect on Cu2+ induced LDL oxidation” value (LDL) is listed as “significantly reduce”.
For `N[C@@H](CSN=O)C(=O)O` [S-Nitrosocysteine], the “concentration that nearly completely inhibits the activation of NFkB” value (NFkB) is listed as 1 micro-mole.
In the case of `C=CCSC[C@H](N)C(=O)O` [S-allylcysteine], the “effect on Cu2+ induced LDL oxidation” value (LDL) is listed as “significantly reduce”.
In the case of `C=CCSC` [AMS, allyl methyl sulfide], the “time of disappearance from breath” value [1] is listed as 20 h.
In the case of `C=CCS[S+](C)[O-]` (stereo not drawn) [methyl allyl thiosulfinate], the “activity against E-coli O157:H7” value (E-coli O157:H7) is given as “effective”.
In the case of `CCCS[S+]([O-])CCC` (stereo not drawn) [dipropylthiosulfinate], the nematicidal activity (nematicidal activity) is given as “most effective compound”.
For `C=CCSSCCC` [n-propyl allyl disulfide], the antibiotic effectiveness [2] is given as “antibiotic effectiveness”.
For `C=CCS` [AllylSH, AllylThiol], the “time of disappearance from breath” value [1] is given as at most 1 h and the solubility [3] is given as “water soluble”.
In the case of `C=CCSSC[C@H](N)C(=O)O` [SAMC, S-AllylMercaptoCysteine], the “effect on Cu2+ induced LDL oxidation” value (LDL) is listed as “significantly reduce”, the “protection from acetaminophen poisoning” value ([4]; post treatment, single dose 200 mg/kg) is listed as “protective” and the “protection from acetaminophen poisoning” value ([4]; pretreatment) is listed as “protect mice”. The “Reaction in Blood Product (moles)” value was “AllylSH (0.8)” and the “total glutathione level of cells” value [5] was “significantly increase the total glutathione level”.
In the case of `[N]=O` [nitric oxide], the “concentration that inhibited the DNA binding activity” value [6] is listed as 20-100 nano mole.
For S-allylcysteine sulfoxide [alliin], the “effect on Cu2+ induced LDL oxidation” value (LDL) is given as “significantly reduce”.
For `N[C@@H](CSSC[C@H](N)C(=O)O)C(=O)O` [Cysteine disulfide, Cystine], the solubility [3] is given as “low solubility”.
In the case of `CS[S+](C)[O-]` (stereo not drawn) [methyl methane thiosulfinate], the “activity against E-coli O157:H7” value (E-coli O157:H7) is listed as “effective”.
In the case of `CCCSSCCC` [di-n-proply disulfide], the antibiotic effectiveness [2] is given as “antibiotic effectiveness”.
In the case of `C=CCS[S+]([O-])CC=C` (stereo not drawn) [Allicin, DiAllylThioSulfinate], the “detection in blood, urine, or stool” value [7] is given as “undetectable”, the half-life [8] is given as “weeks to months” and the “Reaction in Blood Product (moles)” value is given as “AllylSH (1.6)”. The “time to be metabolized to allyl mercaptan” value (red blood cells exposed to allicin) was “less than one”.
